A word on the IC50: it is the midpoint of a concentration-inhibition curve.

The target in test [1] is T1, TANK binding kinase (TBK1) (Homo sapiens, UniProt Q9UHD2).
T1 sequence (Q9UHD2 1-729): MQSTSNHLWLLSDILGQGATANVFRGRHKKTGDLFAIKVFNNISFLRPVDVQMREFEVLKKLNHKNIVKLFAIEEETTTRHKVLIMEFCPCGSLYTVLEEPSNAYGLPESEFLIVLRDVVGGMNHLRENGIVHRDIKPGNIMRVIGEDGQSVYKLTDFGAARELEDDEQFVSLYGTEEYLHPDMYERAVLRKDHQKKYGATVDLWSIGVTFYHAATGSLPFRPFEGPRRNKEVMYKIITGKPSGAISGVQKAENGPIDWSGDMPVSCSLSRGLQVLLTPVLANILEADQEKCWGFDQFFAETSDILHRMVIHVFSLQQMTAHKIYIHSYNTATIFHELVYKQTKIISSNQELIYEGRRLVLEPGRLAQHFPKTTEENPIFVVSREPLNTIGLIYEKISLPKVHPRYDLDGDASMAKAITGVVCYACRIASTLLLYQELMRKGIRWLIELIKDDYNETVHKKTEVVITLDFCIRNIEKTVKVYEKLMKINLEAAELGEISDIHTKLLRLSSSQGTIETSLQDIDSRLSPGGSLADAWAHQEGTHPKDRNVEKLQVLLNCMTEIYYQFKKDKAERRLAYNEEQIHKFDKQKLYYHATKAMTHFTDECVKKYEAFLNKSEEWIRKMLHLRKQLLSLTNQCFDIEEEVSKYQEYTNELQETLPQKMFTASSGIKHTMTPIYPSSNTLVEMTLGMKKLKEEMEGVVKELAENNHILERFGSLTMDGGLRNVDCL
The test is described as follows: TBK1 enzyme assay (384-well Flashplate kinase assay). As to conditions: 10 μM ATP, 120 Min at 30° C. Format: biochemical. The method, then:
The kinase assay is performed as 384-well Flashplate assay (for e.g. Topcount measurement.
0.6 nM TANK binding kinase (TBK1), 800 nM biotinylated MELK-derived peptide (Biotin-Ah-Ah-[…]) and 10 μM ATP (spiked with 0.25 μCi ^33P-ATP/well) are incubated in a total volume of 50 μl (10 mM MOPS, 10 mM Mg-acetat, 0.1 mM EGTA, 1 mM DTT, 0.02% Brij35, 0.1% BSA, pH 7.5) with or without test compound for 120 Min at 30° C. The reaction is stopped with 25 μl 200 mM EDTA. After 30 Min at room temperature the liquid is removed and each well washed thrice with 100 μl 0.9% sodium chloride solution. Nonspecific reaction is determined in presence of 100 nM Staurosporine. Radioactivity is measured in a Topcount (PerkinElmer). Results (e.g. IC50-values) are calculated with program tools provided by the IT-department (e.g. AssayExplorer, Symyx).

Test [2] deals with T2, IKKε (Homo sapiens, UniProt Q14164).
T2 sequence (Q14164 1-716): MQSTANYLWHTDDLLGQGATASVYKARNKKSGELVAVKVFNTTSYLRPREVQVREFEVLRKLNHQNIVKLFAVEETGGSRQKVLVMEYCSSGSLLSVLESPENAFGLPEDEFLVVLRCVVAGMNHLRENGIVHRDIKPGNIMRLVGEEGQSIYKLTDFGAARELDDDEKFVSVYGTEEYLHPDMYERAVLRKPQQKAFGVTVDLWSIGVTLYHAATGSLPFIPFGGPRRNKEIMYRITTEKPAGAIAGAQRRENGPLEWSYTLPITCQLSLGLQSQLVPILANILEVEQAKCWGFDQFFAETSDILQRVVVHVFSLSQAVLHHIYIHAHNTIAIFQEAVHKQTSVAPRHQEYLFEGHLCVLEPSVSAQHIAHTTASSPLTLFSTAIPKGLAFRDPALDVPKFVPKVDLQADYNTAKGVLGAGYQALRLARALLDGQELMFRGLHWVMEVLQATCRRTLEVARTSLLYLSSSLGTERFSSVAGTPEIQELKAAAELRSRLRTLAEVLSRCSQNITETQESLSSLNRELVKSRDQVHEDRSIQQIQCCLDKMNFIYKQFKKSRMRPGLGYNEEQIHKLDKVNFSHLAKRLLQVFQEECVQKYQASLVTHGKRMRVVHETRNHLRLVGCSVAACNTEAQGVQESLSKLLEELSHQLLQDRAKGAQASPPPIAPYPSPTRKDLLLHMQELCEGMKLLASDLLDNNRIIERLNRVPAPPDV
The test is described as follows: IKKε kinase assay (384-well Flashplate). The test is classed as biochemical. As to conditions: 10 μM ATP, 2 hours at 30° C.; read-out: IKKε enzyme assay IC50. The method, then: The kinase assay is performed either as 384-well Flashplate assay (for e.g. Topcount measurement).
1 nM IKKε, 800 nM biotinylated IκBα(19-42) peptide (Biotin-C6-C6-[…]) and 10 μM ATP (spiked with 0.3 μCi ^33P-ATP/well) are incubated in a total volume of 50 μl (10 mM MOPS, 10 mM Mg-acetat, 0.1 mM EGTA, 1 mM Dithiothreitol, 0.02% Brij35, 0.1% BSA, 0.1% BioStab, pH 7.5) with or without test compound for 2 hours at 30° C. The reaction is stopped with 25 μl 200 mM EDTA. After 30 Min at room temperature the liquid is removed and each well washed thrice with 100 μl 0.9% sodium chloride solution. […] Radioactivity is measured with Topcount (PerkinElmer). Results (e.g. IC50-values) are calculated with program tools provided by the IT-department (e.g. AssayExplorer, Symyx).

Regarding `N#Cc1cc(-c2ccnc3cc(-c4ccc(N5CCOCC5)cc4)oc23)ccc1OC1CCOCC1` [Compound A1, 5-[2-(4-Morpholin-4-yl-phenyl)-furo[3,2-b]pyridin-7-yl]-2-(tetrahydro-pyran-4-yloxy)-benzonitrile], the IC50 in test [1] and in test [2] was 3 to 50 µM throughout.
Turning to `N#Cc1cc(-c2ccnc3cc(-c4cccc(N5CCOCC5)c4)oc23)ccc1OC1CCOCC1` [Compound A2, 5-[2-(3-Morpholin-4-yl-phenyl)-furo[3,2-b]pyridin-7-yl]-2-(tetrahydro-pyran-4-yloxy)-benzonitrile], the IC50 in test [1] and in test [2] was below 0.3 µM throughout.
As for `CCN(CCOC)C(=O)c1ccc(-c2cc3nccc(-c4ccc(OC5CCOCC5)c(C#N)c4)c3o2)cc1` [Compound A3, 4-{7-[3-cyano-4-(tetrahydro-pyran-4-yloxy)-phenyl]-furo[3,2-b]pyridin-2-yl}-N-ethyl-N-(2-methoxy-ethyl)-benzamide], the IC50 in test [1] and in test [2] was below 0.3 µM in each case.
Regarding `CCOC(=O)c1ccc(-c2cc3nccc(-c4ccc(OC5CCOCC5)c(C#N)c4)c3o2)cc1` [Compound A4, 4-{7-[3-cyano-4-(tetrahydro-pyran-4-yloxy)-phenyl]-furo[3,2-b]pyridin-2-yl}-benzoic acid ethyl ester], the half-maximal inhibitory concentration (IC50) in test [1] and in test [2] was 0.3 to 3 µM throughout.
With `COc1ccccc1-c1cc2nccc(-c3ccc(OC4CCOCC4)c(C#N)c3)c2o1` [Compound A5, 5-[2-(2-methoxy-phenyl)-furo[3,2-b]pyridin-7-yl]-2-(tetrahydro-pyran-4-yloxy)-benzonitrile], the IC50 in test [1] and in test [2] was below 0.3 µM throughout.
`COc1cccc(-c2cc3nccc(-c4ccc(OC5CCOCC5)c(C#N)c4)c3o2)c1` [Compound A6, 5-[2-(3-methoxy-phenyl)-furo[3,2-b]pyridin-7-yl]-2-(tetrahydro-pyran-4-yloxy)-benzonitrile]: the IC50 in test [1] and in test [2] was 0.3 to 3 µM each time.
As to `COc1ccc(-c2cc3nccc(-c4ccc(OC5CCOCC5)c(C#N)c4)c3o2)cc1` [Compound A7, 5-[2-(4-methoxy-phenyl)-furo[3,2-b]pyridin-7-yl]-2-(tetrahydro-pyran-4-yloxy)-benzonitrile], the IC50 in test [1] and in test [2] was 0.3 to 3 µM in each case.
`COCCn1cc(-c2cc3nccc(-c4ccc(OC5CCOCC5)c(C#N)c4)c3o2)cn1` [Compound A8, 5-{2-[1-(2-methoxy-ethyl)-1H-pyrazol-4-yl]-furo[3,2-b]pyridin-7-yl}-2-(tetrahydro-pyran-4-yloxy)-benzonitrile]: the IC50 fell in the range of 3 to 50 µM in test [1] and 0.3 to 3 µM in test [2].
On to `CN1CCN(c2cccc(-c3cc4nccc(-c5ccc(OC6CCOCC6)c(C#N)c5)c4o3)c2)CC1` [Compound A9, 5-{2-[3-(4-methyl-piperazin-1-yl)-phenyl]-furo[3,2-b]pyridin-7-yl}-2-(tetrahydro-pyran-4-yloxy)-benzonitrile], for which the half-inhibitory concentration (IC50) in test [1] and in test [2] was below 0.3 µM in each case.
Regarding `CN1CCN(c2ccc(-c3cc4nccc(-c5ccc(OC6CCOCC6)c(C#N)c5)c4o3)cc2)CC1` [Compound A10, 5-{2-[4-(4-methyl-piperazin-1-yl)-phenyl]-furo[3,2-b]pyridin-7-yl}-2-(tetrahydro-pyran-4-yloxy)-benzonitrile], the IC50 in test [1] and in test [2] was below 0.3 µM in each case.
For the compound `N#Cc1cc(-c2ccnc3cc(-c4cccc5[nH]cnc45)oc23)ccc1OC1CCOCC1` [Compound A13, 5-[2-(1H-benzoimidazol-4-yl)-furo[3,2-b]pyridin-7-yl]-2-(tetrahydro-pyran-4-yloxy)-benzonitrile], the IC50 in test [1] and in test [2] was 0.3 to 3 µM each time.
Turning to `N#Cc1cc(-c2ccnc3cc(-c4ccc5[nH]c(=O)[nH]c5c4)oc23)ccc1OC1CCOCC1` [Compound A14, 5-[2-(2-oxo-2,3-dihydro-1H-benzoimidazol-5-yl)-furo[3,2-b]pyridin-7-yl]-2-(tetrahydro-pyran-4-yloxy)-benzonitrile], the concentration for half-maximal inhibition (IC50) in test [1] and in test [2] was 3 to 50 µM throughout.
Take `CNCCNC(=O)c1ccc(-c2cc3nccc(-c4ccc(OC5CCOCC5)c(C#N)c4)c3o2)cc1` [Compound A15, 4-{7-[3-cyano-4-(tetrahydro-pyran-4-yloxy)-phenyl]-furo[3,2-b]pyridin-2-yl}-N-(2-methylamino-ethyl)-benzamide]: the results for the IC50 in test [1] and in test [2] were 0.3 to 3 µM and below 0.3 µM, respectively.
In the case of `N#Cc1cc(-c2ccnc3cc(-c4ccc(C(=O)O)cc4)oc23)ccc1OC1CCOCC1` [Compound A16a, 4-{7-[3-Cyano-4-(tetrahydro-pyran-4-yloxy)-phenyl]-furo[3,2-b]pyridin-2-yl}-benzoic acid], the IC50 in test [1] and in test [2] was 0.3 to 3 µM throughout.
For the compound `CN1CCN(C(=O)c2ccc(-c3cc4nccc(-c5ccc(OC6CCOCC6)c(C#N)c5)c4o3)cc2)CC1` [Compound A17, 5-{2-[4-(4-Methyl-piperazine-1-carbonyl)-phenyl]-furo[3,2-b]pyridin-7-yl}-2-(tetrahydro-pyran-4-yloxy)-benzonitrile], the half-maximal inhibitory concentration (IC50) in test [1] and in test [2] was below 0.3 µM in each case.
As to `N#Cc1cc(-c2ccnc3cc(-c4ccc(C(N)=O)cc4)oc23)ccc1OC1CCOCC1` [Compound A18, 4-{7-[3-cyano-4-(tetrahydro-pyran-4-yloxy)-phenyl]-furo[3,2-b]pyridin-2-yl}-benzamide], the IC50 in test [1] and in test [2] was 3 to 50 µM in each case.
As for `CNC(=O)c1ccc(-c2cc3nccc(-c4ccc(OC5CCOCC5)c(C#N)c4)c3o2)cc1` [Compound A19, 4-{7-[3-cyano-4-(tetrahydro-pyran-4-yloxy)-phenyl]-furo[3,2-b]pyridin-2-yl}-N-methyl-benzamide], the IC50 in test [1] and in test [2] was 0.3 to 3 µM in each case.
`CCNC(=O)c1ccc(-c2cc3nccc(-c4ccc(OC5CCOCC5)c(C#N)c4)c3o2)cc1` [Compound A20, 4-{7-[3-cyano-4-(tetrahydro-pyran-4-yloxy)-phenyl]-furo[3,2-b]pyridin-2-yl}-N-ethyl-benzamide]: the IC50 in test [1] and in test [2] was 0.3 to 3 µM throughout.
In the case of `CC(C)(C)OCCNC(=O)c1ccc(-c2cc3nccc(-c4ccc(OC5CCOCC5)c(C#N)c4)c3o2)cc1` [Compound A21, N-(2-tert-butoxy-ethyl)-4-{7-[3-cyano-4-(tetrahydro-pyran-4-yloxy)-phenyl]-furo[3,2-b]pyridin-2-yl}-benzamide], the IC50 in test [1] and in test [2] was 0.3 to 3 µM each time.

The values are drawn from patent publication US9045493B2, “Furo[3,2-b]- and thieno[3,2-b]pyridin derivatives” (Merck Patent GmbH, priority 2012, dated 2015).
